According to patent US20130210817A1, “METHODS OF CONTROLLING NEONICOTINOID RESISTANT APHIDS” (SYNGENTA CROP PROTECTION LLC, priority 2010, published 2013):

Legend:
[1] = system: neonicotinoid insecticide resistant aphid strain; assay type: in vivo; details: mixed age aphids on chinese cabbage leaf discs, Potter Tower spray, mortality 72 hours after treatment; resistant strain from peach orchard, Avignon region, 2009
Description: (§1) The following bioassay methodology was utilized to generate the data included in the table:
(§2) 5 cm leaf discs were taken from fully expanded chinese cabbage leaves and placed with the underside facing upwards onto water agar in 5 cm Petri dishes. The leaf discs are infested with between 30 and 40 mixed age aphids 24 hours prior to insecticide treatment. The leaf surface is sprayed with the appropriate test solutions in a Burkhard Potter Tower at an approximate water volume of 450 l/ha. Test containers are stored at 21 °C, 60% RH and 16:8 light/dark. Aphids were assessed for mortality 72 hours after treatment.

[2] = system: neonicotinoid insecticide susceptible strain 4106A; assay type: in vivo; details: mixed age aphids on chinese cabbage leaf discs, Potter Tower spray, mortality 72 hours after treatment; susceptible strain 4106A (Rothamsted Research)
Description: as §1, §2

Row | SMILES | LC50 with 95% confidence limit (ppm) resistant strain [1] | LC50 with 95% confidence limit (ppm) susceptible strain [2]
1 | C/C(=N\C#N)N(C)Cc1ccc(Cl)nc1 [acetamiprid] | 49.3 (35.2-72.0) ppm | 0.55 (0.51-0.59) ppm
2 | CN/C(=N\[N+](=O)[O-])NCc1cnc(Cl)s1 [clothianidin] | 904 (478-3616) ppm | 0.33 (0.28-0.38) ppm
3 | CN/C(=N/CC1CCOC1)N[N+](=O)[O-] (centres unmarked) [dinotefuran] | 538 (435-696) ppm | 9.95 (8.21-12.5) ppm
4 | CCN(Cc1ccc(Cl)nc1)/C(=C/[N+](=O)[O-])NC [nitenpyram] | 237 (93.7-3566) ppm | 1.26 (1.03-1.61) ppm
5 | CC(=O)N1C(=O)N(NCc2cccnc2)Cc2cc(C(F)(C(F)(F)F)C(F)(F)F)ccc21 [pyrifluquinazon, 1-acetyl-1,2,3,4-tetrahydro-3-[(3-pyridylmethyl)amino]-6-[1,2,2,2-tetrafluoro-1-(trifluoromethyl)ethyl]quinazolin-2-one] | 0.09 (0.06-0.13) ppm | 0.17 (0.13-0.22) ppm
6 | N#C/N=C1\SCCN1Cc1ccc(Cl)nc1 [thiacloprid] | >1000 ppm | 0.38 (0.34-0.42) ppm
7 | CN1COCN(Cc2cnc(Cl)s2)/C1=N\[N+](=O)[O-] [thiamethoxam] | 148 (128-172) ppm | 0.35 (0.3-0.41) ppm
